Measured values as given in ChEMBL document CHEMBL4699470, “N-Substituted piperazine derivatives as potential multitarget agents acting on histamine H receptor and cancer resistance proteins” (Bioorg Med Chem Lett, 2020).

What was measured:
[1] = target: T1, ATP-dependent translocase ABCB1 (Homo sapiens, UniProt P08183); assay: Inhibition of human ABCB1 in expressed in multidrug resistant mouse L5178Y cells assessed as fluorescence activity ratio at 2 uM by rhodamine 123 retention assay relative to parental L5178Y cells; format: cell-based
[2] = target: T1, ATP-dependent translocase ABCB1; assay: Inhibition of human ABCB1 in expressed in multidrug resistant mouse L5178Y cells assessed as fluorescence activity ratio at 20 uM by rhodamine 123 retention assay relative to parental L5178Y cells; format: cell-based
L5178Y [3] = assay: Cytotoxicity against mouse L5178Y cells assessed as reduction in cell viability by MTT assay; format: functional, cell-based
L5178Y [4] = assay: Cytotoxicity against multidrug resistance mouse L5178Y cells expressing human MDR1 assessed as reduction in cell viability by MTT assay; format: functional, cell-based
L5178Y [5] = assay: Antiproliferative activity against mouse L5178Y cells by MTT assay; format: functional, cell-based
L5178Y [6] = assay: Antiproliferative activity against multidrug resistance mouse L5178Y cells expressing human MDR1 by MTT assay; format: functional, cell-based
[7] = target: T1, ATP-dependent translocase ABCB1; assay: Inhibition of human ABCB1 in expressed in multidrug resistant mouse L5178Y cells assessed as fluorescence activity ratio by rhodamine 123 retention assay relative to verapamil; format: cell-based
Homo sapiens = organism: Homo sapiens; assay: Substrate activity at Pgp (unknown origin) assessed as increase in ATP basal consumption at 100 uM by Pgp-Glo luminescence assay relative to control

T1 sequence (P08183 whole entry): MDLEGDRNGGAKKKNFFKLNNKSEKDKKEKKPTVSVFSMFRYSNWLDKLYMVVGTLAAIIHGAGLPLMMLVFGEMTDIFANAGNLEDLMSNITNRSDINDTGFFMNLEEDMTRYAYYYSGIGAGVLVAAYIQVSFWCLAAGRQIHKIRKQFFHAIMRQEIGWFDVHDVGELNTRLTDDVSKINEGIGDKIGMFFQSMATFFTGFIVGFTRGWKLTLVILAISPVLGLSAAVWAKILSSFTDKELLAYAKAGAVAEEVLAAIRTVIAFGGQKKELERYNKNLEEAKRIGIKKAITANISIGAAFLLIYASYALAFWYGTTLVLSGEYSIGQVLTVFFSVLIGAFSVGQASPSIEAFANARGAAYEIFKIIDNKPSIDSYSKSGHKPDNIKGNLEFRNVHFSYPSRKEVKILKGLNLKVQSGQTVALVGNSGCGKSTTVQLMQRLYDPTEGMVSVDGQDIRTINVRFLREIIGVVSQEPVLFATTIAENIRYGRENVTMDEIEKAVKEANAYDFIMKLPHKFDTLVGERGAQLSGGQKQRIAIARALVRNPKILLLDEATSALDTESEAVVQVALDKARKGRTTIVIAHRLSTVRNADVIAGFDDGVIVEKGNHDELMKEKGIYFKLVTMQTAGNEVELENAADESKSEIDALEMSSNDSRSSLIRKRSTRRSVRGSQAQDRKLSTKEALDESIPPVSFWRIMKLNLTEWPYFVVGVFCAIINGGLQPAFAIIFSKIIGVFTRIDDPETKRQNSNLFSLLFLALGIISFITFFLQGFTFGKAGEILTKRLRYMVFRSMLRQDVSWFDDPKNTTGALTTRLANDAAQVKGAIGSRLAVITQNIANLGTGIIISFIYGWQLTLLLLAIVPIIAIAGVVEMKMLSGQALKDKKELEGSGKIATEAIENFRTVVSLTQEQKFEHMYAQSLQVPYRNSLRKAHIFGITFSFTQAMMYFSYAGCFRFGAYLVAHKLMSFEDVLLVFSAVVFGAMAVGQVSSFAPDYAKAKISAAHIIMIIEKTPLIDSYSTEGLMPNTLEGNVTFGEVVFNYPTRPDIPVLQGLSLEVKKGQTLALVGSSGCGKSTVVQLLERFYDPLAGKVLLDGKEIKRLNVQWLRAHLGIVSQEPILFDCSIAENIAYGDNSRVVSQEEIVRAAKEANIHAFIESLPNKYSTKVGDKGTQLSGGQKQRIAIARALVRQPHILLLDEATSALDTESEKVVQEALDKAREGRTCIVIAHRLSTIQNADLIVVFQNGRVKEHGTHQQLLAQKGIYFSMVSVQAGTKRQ

Row | Ratio [1] | Ratio [2] | Ratio [7] | Activity (Homo sapiens) [%] | SMILES | IC50 (L5178Y [3]) [µM] | IC50 (L5178Y [4]) [µM] | IC50 (L5178Y [5]) [µM] | IC50 (L5178Y [6]) [µM]
1 | 0.84 | 0.99 | – | – | CC(=O)c1ccc(OCCCCN2CCN(c3cccnc3)CC2)cc1 | 69 | 44 | 24.2 | 29.8
2 | 1.36 | 17.85 | 1.6 | – | CC(C)(C)c1ccc(OCCCCN2CCN(c3cnccn3)CC2)cc1 | 18.3 | 27.6 | 9.86 | 9.68
3 | 1.85 | 73.64 | 1.6 | > 100 | CCC(C)(C)c1ccc(OCCCCN2CCN(c3cnccn3)CC2)cc1 | 12.6 | 12.8 | 9.56 | 9.49
4 | 2.17 | 32.32 | 1.6 | – | CCC(C)(C)c1ccc(OCCCCN2CCN(c3ncccn3)CC2)cc1 | 46.4 | 32.1 | 17.7 | 18.9
5 | 0.86 | 1.28 | – | – | CC(=O)c1ccc(OCCCCN2CCN(c3ncccn3)CC2)cc1 | > 100 | 63.9 | 31.6 | 38.9
6 | 0.92 | 0.84 | – | – | CC(=O)c1ccc(OCCCN2CCN(c3ccccn3)CC2)cc1 | – | 49.7 | 27.1 | 32.8
7 | 1.06 | 1.03 | – | – | CC(=O)c1ccc(OCCCN2CCN(c3ncccn3)CC2)cc1 | > 100 | – | 53.2 | 77.5
8 | 0.92 | 1.02 | – | – | CCC(=O)c1ccc(OCCCN2CCN(c3ncccn3)CC2)cc1 | > 100 | 54.6 | 36.9 | 41.3
9 | 5.95 | 19.26 | 1.6 | > 100 | CCC(C)(C)c1ccc(OCCCCN2CCN(c3cccnc3)CC2)cc1 | 9.23 | 7.59 | 3.23 | 3.68
10 | 0.98 | 8.71 | 1.6 | – | CC(=O)c1ccc(OCCCCN2CCN(c3ccccn3)CC2)cc1 | 63.7 | 46.2 | 24.1 | 25.5
11 | 0.93 | 1.02 | – | – | CC(C)(C)c1ccc(OCCCN2CCN(c3ncccn3)CC2)cc1 | 40.4 | 49.4 | 25.6 | 20.7
12 | 1.74 | 38.41 | 1.6 | > 100 | CC(C)(C)c1ccc(OCCCCN2CCN(c3ccccn3)CC2)cc1 | 15.1 | 16.7 | 11.9 | 16.4
13 | 2.7 | 34.05 | 1.6 | – | CC(C)(C)c1ccc(OCCCCN2CCN(c3ncccn3)CC2)cc1 | 20.8 | 17.6 | 11.3 | 9.88
14 | 0.83 | 0.82 | – | – | CCC(=O)c1ccc(OCCCN2CCN(c3cnccn3)CC2)cc1 | 47.5 | 60.3 | 24.3 | 30
15 | – | – | – | – | CSc1ccc2c(c1)N(CCC1CCCCN1C)c1ccccc1S2 (configuration not stated) [THIORIDAZINE] | 12.7 | 7.43 | – | –
16 | 2.81 | 25.33 | 1.6 | > 100 | CC(C)(C)c1ccc(OCCCCN2CCN(c3cccnc3)CC2)cc1 | 11.7 | 10.5 | 5.48 | 5.99
17 | 1.29 | 1.61 | – | – | CC(=O)c1ccc(OCCCN2CCN(c3ccncc3)CC2)cc1 | > 100 | – | 42.3 | 43.8
